Experimental data reported in publication PMC314469, “Protein Interaction Networks by Proteome Peptide Scanning” (PLoS Biology, 2004).

system: Myo5 SH3 domain; assay: SPOT analysis of cellulose-bound peptides (WISE), Myo5 SH3 domain (Dataset S4); type: binding, Saccharomyces cerevisiae; conditions: SPOT analysis of cellulose-bound 14-mer yeast proteome peptides, Myo5 SH3 domain; normalized value; mean where the peptide was synthesized more than once

Which “The normalized value in BLU units” value does the source give for YPEKFQKPYNPLAM here?
The value was 157.4 BLU.

How did the “The normalized value in BLU units” value turn out when KFVIHNEPIDPSDK was run?
The value was 46.7 BLU.

YEGRFWNPENPYKF was tested. Which “The normalized value in BLU units” value did it give?
The value was 162.7 BLU.

With ERDGRGVPLGPRNH as the sequence, how does the “The normalized value in BLU units” value read?
The value was 121.3 BLU.

For ETSLRVLPIAPKIF, which “The normalized value in BLU units” value is on record?
Its value is 548.0 BLU.

How did the “The normalized value in BLU units” value turn out when YEADYVIPVLPGSH was run?
The value was 124.6 BLU.

How did the “The normalized value in BLU units” value turn out when FEDHHITPCKPGGQ was run?
The value was 67.9 BLU.

Which “The normalized value in BLU units” value does the source give for ALWAKFFPEKPLNI here?
Its value is 154.0 BLU.

With ELRTLFVPLIPSVT as the sequence, how does the “The normalized value in BLU units” value read?
Its value is 293.5 BLU.

Which “The normalized value in BLU units” value does the source give for PEGVFCIPAPPPNV here?
Its value is 82.5 BLU.

For TPMDFPEPVGPLAI, which “The normalized value in BLU units” value is on record?
The value was 175.4 BLU.

For FEMVFRHPEQPHMI, which “The normalized value in BLU units” value is on record?
Its value is 309.9 BLU.

SEAKRKFPEAPEVP was tested. Which “The normalized value in BLU units” value did it give?
The value was 392.6 BLU.

same assay, conditions: SPOT analysis of cellulose-bound peptides probed with Myo5 SH3 domain; normalized value

With FLYPYDDPNAPIDE as the sequence, how does the “The normalized value in BLU units (SPOT analysis, Myo5 SH3)” value read?
Its value is 55.4 BLU.

How did the “The normalized value in BLU units (SPOT analysis, Myo5 SH3)” value turn out when EAHQHHQPPEPQPY was run?
The value was 0.0 BLU.

How did the “The normalized value in BLU units (SPOT analysis, Myo5 SH3)” value turn out when GETQWRIPYLPLDP was run?
The value was 106.2 BLU.

Which “The normalized value in BLU units (SPOT analysis, Myo5 SH3)” value does the source give for DELLLMSPELPADL here?
Its value is 16.0 BLU.

For REFEFIIPVFPVIC, which “The normalized value in BLU units (SPOT analysis, Myo5 SH3)” value is on record?
The value was 163.2 BLU.

SFVHLTEPSQPLSD was tested. Which “The normalized value in BLU units (SPOT analysis, Myo5 SH3)” value did it give?
Its value is 99.7 BLU.

For ELRDLDIPLVPSPK, which “The normalized value in BLU units (SPOT analysis, Myo5 SH3)” value is on record?
Its value is 75.3 BLU.

DFPLYKSPAFPSSC was tested. Which “The normalized value in BLU units (SPOT analysis, Myo5 SH3)” value did it give?
The value was 172.8 BLU.

EPATLPLPGTPTLA was tested. Which “The normalized value in BLU units (SPOT analysis, Myo5 SH3)” value did it give?
Its value is 61.8 BLU.

For ILTCLPVPPPPVRP, which “The normalized value in BLU units (SPOT analysis, Myo5 SH3)” value is on record?
The value was 616.9 BLU.

same assay, conditions: SPOT analysis of membrane-bound peptides, Myo5 SH3 domain; normalized value (see methods)

For DLQKKYEPSPPATH, which “The normalized value in BLU units” value is on record?
Its value is 224.6 BLU.

ATKRKTIPVYPPVQ was tested. Which “The normalized value in BLU units” value did it give?
Its value is 273.7 BLU.

With IPAPKLVPPPPRTR as the sequence, how does the “The normalized value in BLU units” value read?
Its value is 82308.4 BLU.

With LGLHKWLPDIPLFE as the sequence, how does the “The normalized value in BLU units” value read?
Its value is 167.8 BLU.

Which “The normalized value in BLU units” value does the source give for EFLIKEDPDLPPQG here?
Its value is 175.4 BLU.

For GLDLKWEPSTPQRK, which “The normalized value in BLU units” value is on record?
The value was 164.4 BLU.

How did the “The normalized value in BLU units” value turn out when DIKTRSVPKIPSIE was run?
The value was 102.3 BLU.

For YCPWKLCPLLPILY, which “The normalized value in BLU units” value is on record?
The value was 176.0 BLU.

Which “The normalized value in BLU units” value does the source give for NEFAKFAPDLPVLK here?
The value was 135.1 BLU.

With YPNGRTLPPVPTQV as the sequence, how does the “The normalized value in BLU units” value read?
Its value is 172.4 BLU.

With NRKQRSIPLSPIVP as the sequence, how does the “The normalized value in BLU units” value read?
Its value is 490.7 BLU.

For KDFSKNAPYNPSEV, which “The normalized value in BLU units” value is on record?
Its value is 142.6 BLU.

Which “The normalized value in BLU units” value does the source give for KSIPRTKPNVPPLQ here?
Its value is 343.4 BLU.

With NTIIKLFPYIPIPV as the sequence, how does the “The normalized value in BLU units” value read?
Its value is 203.7 BLU.

same assay, conditions: SPOT analysis of membrane-synthesized peptides probed with Myo5 SH3 domain; normalized value

For IPYEKRDPTSPAPL, which “The normalized value in BLU units (SPOT analysis, Myo5 SH3)” value is on record?
The value was 114.1 BLU.

AISKKLGPDTPIKV was tested. Which “The normalized value in BLU units (SPOT analysis, Myo5 SH3)” value did it give?
Its value is 176.5 BLU.

SLTLKTLPRVPTDS was tested. Which “The normalized value in BLU units (SPOT analysis, Myo5 SH3)” value did it give?
The value was 211.7 BLU.

Which “The normalized value in BLU units (SPOT analysis, Myo5 SH3)” value does the source give for MYDRKVIPRMPWHD here?
Its value is 357.4 BLU.

With ISADKGFPLIPSGY as the sequence, how does the “The normalized value in BLU units (SPOT analysis, Myo5 SH3)” value read?
The value was 113.3 BLU.

Which “The normalized value in BLU units (SPOT analysis, Myo5 SH3)” value does the source give for QNGLRFNPDVPKLW here?
Its value is 260.1 BLU.

With WLDEKRIPSTPIDY as the sequence, how does the “The normalized value in BLU units (SPOT analysis, Myo5 SH3)” value read?
Its value is 163.3 BLU.

How did the “The normalized value in BLU units (SPOT analysis, Myo5 SH3)” value turn out when HKFVKSSPVVPFDD was run?
The value was 150.9 BLU.

For NKPKRKRPAPPKKK, which “The normalized value in BLU units (SPOT analysis, Myo5 SH3)” value is on record?
Its value is 872.0 BLU.

For GTTNRGPPPLPPRA, which “The normalized value in BLU units (SPOT analysis, Myo5 SH3)” value is on record?
The value was 39858.8 BLU.

How did the “The normalized value in BLU units (SPOT analysis, Myo5 SH3)” value turn out when GLMSKLGPNLPASI was run?
The value was 287.3 BLU.

RPKRRAPPPVPKKP was tested. Which “The normalized value in BLU units (SPOT analysis, Myo5 SH3)” value did it give?
Its value is 67429.7 BLU.

For EKLIKITPDTPFGF, which “The normalized value in BLU units (SPOT analysis, Myo5 SH3)” value is on record?
Its value is 205.9 BLU.

NIPTKSPPKSPKHK was tested. Which “The normalized value in BLU units (SPOT analysis, Myo5 SH3)” value did it give?
The value was 12462.9 BLU.

For YVYGRQDPKKPFFT, which “The normalized value in BLU units (SPOT analysis, Myo5 SH3)” value is on record?
The value was 345.2 BLU.

Which “The normalized value in BLU units (SPOT analysis, Myo5 SH3)” value does the source give for SNFKKRDPGLPDFQ here?
Its value is 160.6 BLU.

With AVLIRADPLNPKVV as the sequence, how does the “The normalized value in BLU units (SPOT analysis, Myo5 SH3)” value read?
Its value is 102.0 BLU.

With LLEERNNPDIPVDK as the sequence, how does the “The normalized value in BLU units (SPOT analysis, Myo5 SH3)” value read?
Its value is 311.9 BLU.

Which “The normalized value in BLU units (SPOT analysis, Myo5 SH3)” value does the source give for QGSNKYSPSSPLTT here?
Its value is 171.4 BLU.

Which “The normalized value in BLU units (SPOT analysis, Myo5 SH3)” value does the source give for FQPQRTAPKPPISA here?
Its value is 88304.9 BLU.

TINSRFYPPIPISE was tested. Which “The normalized value in BLU units (SPOT analysis, Myo5 SH3)” value did it give?
The value was 76.4 BLU.
